One data set deals with T1, BTK (Homo sapiens, UniProt Q06187).
T1 construct: endogenous in cells; host or cells: Rec-1 cells (ATCC) / Ramos cells
The data set is described as follows: BTK HTRF degradation assay. The class given is cell-based. Particulars: treatment time 24 h; Cisbio Total-BTK HTRF; Rec-1 / Ramos cells. How it is done:
Rec-1 cells were obtained from American Type Culture Collection and were grown in RPMI-1640 media (ATCC, 30-2001) supplemented with 10% heat-inactivated FBS (Corning Premium Fetal Bovine Serum from Fisher, MT35015CV). Compounds of the present invention were added to 50,000 Ramos cells in round-bottom 96 well plates with a final DMSO concentration of […] and were incubated at 37° C. 5% CO2 for different time. BTK levels were determined using Cisbio Total-BTK HTRF ([…] Time-Resolved Fluorescence) kit (63ADK064PEG) according to manufacturer's protocol. Briefly, cells were incubated in 1× supplied lysis buffer for 30 minutes. In an opaque white low volume 96 well plate (Cisbio, 66PL96005), cell lysate was combined with two different specific BTK antibodies, one conjugated with Eu3+-Cryptate FRET donor and one conjugated with d2 FRET acceptor. Assay controls include wells containing cell lysate with only the Eu3+-Cryptate FRET donor antibody and wells containing both HTRF antibodies and lysis buffer without cells or control lysate provided by Cisbio. HTRF ratio was calculated as (acceptor signal at 665 nm/donor signal at 620 nm)×[…]. Background HTRF levels were determined from the control well containing the donor, but no acceptor, antibody. Background HTRF levels were subtracted from all samples. Readouts were reported as HTRF levels relative to HTRF levels of DMSO-treated cells. Four-parameter non-linear regressions were performed in GraphPad Prism 7.02 to obtain DC50 values.

Another data set is described as follows: Mice PK study. The following applies: CD-1 mouse; for AUCinf(h*ng/mL)/(mg/kg): plasma, route not stated in table (text: oral PK profile). The data set is classed as in vivo. How it is done:
The pharmacokinetics of compounds were evaluated in CD-1 mouse via Intravenous and Oral Administration. The IV dose was administered as a slow bolus in the Jugular vein, and oral doses were administered by gavage. The formulation for IV dosing is 5% DMSO in 20% HPBCD in water, and the PO formulation is 2.5% DMSO, 10% EtOH, 20% Cremphor EL, 67.5% D5W. The PK time point for the IV arm was 5, 15, 30 min, 1, 2, 4, 6, 8, 12, 24 hours post dose, and for PO arm was 15, 30 min, 1, 2, 4, 6, 8, 12, 24 hours post dose. Approximately 0.03 mL blood was collected at each time point. Blood of each sample was transferred into plastic micro centrifuge tubes containing EDTA-K2 and plasma was collected within 15 min by centrifugation at 4000 g for 5 minutes in a 4° C. centrifuge. Plasma samples were stored in polypropylene tubes. The samples were stored in a freezer at −75±15° C. prior to analysis. Concentrations of compounds in the plasma samples were analyzed using a LC-MS/MS method. WinNonlin (Phoenix™, version 6.1) or other similar software was used for pharmacokinetic calculations. The following pharmacokinetic parameters were calculated, whenever possible from the plasma concentration versus time data: IV administration: C0, CL, Vd, T1/2, AUCinf, AUClast, MRT, Number of Points for Regression; PO administration: Cmax, Tmax, T1/2, AUCinf, AUClast, F %, Number of Points for Regression. The pharmacokinetic data was described using descriptive statistics such as mean, standard deviation. Additional pharmacokinetic or statistical analysis was performed at the discretion of the contributing scientist, and was documented in the data summary.

One may read the DC50 as the concentration at which degradation of the target reaches its halfway point. As usually defined, the Dmax is the largest share of the target that was removed. Lower therefore signals shallow degradation.

T1 sequence (Q06187 whole entry): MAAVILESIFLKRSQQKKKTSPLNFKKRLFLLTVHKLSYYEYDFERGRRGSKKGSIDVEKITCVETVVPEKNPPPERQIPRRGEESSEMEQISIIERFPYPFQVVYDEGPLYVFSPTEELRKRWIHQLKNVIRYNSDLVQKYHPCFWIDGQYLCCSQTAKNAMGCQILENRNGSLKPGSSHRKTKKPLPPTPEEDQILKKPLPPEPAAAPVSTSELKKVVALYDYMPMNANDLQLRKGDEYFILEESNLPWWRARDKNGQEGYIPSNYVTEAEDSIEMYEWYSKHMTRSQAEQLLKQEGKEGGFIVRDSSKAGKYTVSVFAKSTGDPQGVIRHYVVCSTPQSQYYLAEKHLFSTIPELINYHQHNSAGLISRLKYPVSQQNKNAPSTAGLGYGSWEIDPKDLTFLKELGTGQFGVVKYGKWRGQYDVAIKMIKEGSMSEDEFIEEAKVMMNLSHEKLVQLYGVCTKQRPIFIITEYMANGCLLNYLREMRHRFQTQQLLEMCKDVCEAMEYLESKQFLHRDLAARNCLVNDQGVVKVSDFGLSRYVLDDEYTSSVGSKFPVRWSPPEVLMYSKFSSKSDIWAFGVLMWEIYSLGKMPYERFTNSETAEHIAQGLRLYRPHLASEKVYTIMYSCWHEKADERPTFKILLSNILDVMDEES

At BTK, `C[C@H]1CN(C2CCN(c3ccc4c(c3)C(=O)N(C3CCC(=O)NC3=O)C4=O)CC2)CCN1c1ccc(Nc2cc(-c3ccnc(N4CCn5c(cc6c5CC(C)(C)C6)C4=O)c3CO)cn(C)c2=O)nc1` (stereo partly drawn) [Example 2, 5-{4-[(3S)-4-{6-[(2′-{4,4-dimethyl-9-oxo-1,10-diazatricyclo[6.4.0.0^{2,6}]dodeca-2(6),7-dien-10-yl}-3′-(hydroxymethyl)-1-methyl-6-oxo-[3,4′-bipyridin]-5-yl)amino]pyridin-3-yl}-3-methylpiperazin-1-yl]piperidin-1-yl}-2-(2,6-dioxopiperidin-3-yl)isoindole-1,3-dione] showed a DC50 of 0.46 nM and a Dmax % of 96%. The “AUCinf(h*ng/mL)/(mg/kg)” value in the data set “Mice PK study” is given as 3,120 (h*ng/mL)/(mg/kg).
In the case of `[2H]C([2H])([2H])n1cc(-c2ccnc(N3CCn4c(cc5c4CC(C)(C)C5)C3=O)c2CO)cc(Nc2ccc(N3CCN(C4CCN(c5ccc6c(c5)C(=O)N(C5CCC(=O)NC5=O)C6=O)CC4)C[C@@H]3C)cn2)c1=O` (stereo partly drawn) [Example 22, 5-(4-((S)-4-(6-((2′-(7,7-dimethyl-1-oxo-1,3,4,6,7,8-hexahydro-2H-cyclopenta[4,5]pyrrolo[1,2-a]pyrazin-2-yl)-3′-(hydroxymethyl)-1-(methyl-d3)-6-oxo-1,6-dihydro-[3,4′-bipyridin]-5-yl)amino)pyridin-3-yl)-3-methylpiperazin-1-yl)piperidin-1-yl)-2-(2,6-dioxopiperidin-3-yl)isoindoline-1,3-dione], on BTK, half-maximal degradation (DC50) was put at 1.1 nM and the maximal degradation (Dmax) was determined as 98%. In addition, in “Mice PK study” (oral), the “oral PK profile (comparison)” value was “better oral PK profile than Example 2”. Also, the “AUCinf(h*ng/mL)/(mg/kg)” value in “Mice PK study” is listed as 3,822 (h*ng/mL)/(mg/kg).

Values taken from patent publication US20240058457A1, “BTK DEGRADER” (Newave Pharmaceutical Inc., priority 2020, published 2024).
